The source made the active and inactive calls.
Columns and labels:
[1] = system: Elatine triandra; assay: Pre-emergence herbicidal activity against Elatine triandra assessed as bleaching of stem/leaf parts; type: functional, organism-based
[2] = system: Elatine triandra; assay: Post-emergence herbicidal activity against Elatine triandra assessed as bleaching of stem/leaf parts; type: functional, organism-based; further: test concentration or dose not given here
[3] = system: Schoenoplectiella juncoides; assay: Post-emergence herbicidal activity against Schoenoplectiella juncoides assessed as bleaching of stem/leaf parts; type: functional, organism-based; further: test concentration or dose not given here
[4] = system: Eleocharis acicularis; assay: Post-emergence herbicidal activity against Eleocharis acicularis assessed as bleaching of stem/leaf parts; type: functional, organism-based; further: test concentration or dose not given here
[5] = system: Lindernia procumbens; assay: Post-emergence herbicidal activity against Lindernia procumbens assessed as bleaching of stem/leaf parts; type: functional, organism-based; further: test concentration or dose not given here
[6] = system: Rotala indica; assay: Post-emergence herbicidal activity against Rotala indica assessed as bleaching of stem/leaf parts; type: functional, organism-based; further: test concentration or dose not given here
[7] = system: Lindernia procumbens; assay: Pre-emergence herbicidal activity against Lindernia procumbens assessed as bleaching of stem/leaf parts; type: functional, organism-based
[8] = system: Cyperus difformis; assay: Pre-emergence herbicidal activity against Cyperus difformis at 500 g a.i/ha measured after 14 days; type: functional, organism-based
[9] = system: Ammannia multiflora; assay: Post-emergence herbicidal activity against Ammannia multiflora assessed as bleaching of stem/leaf parts; type: functional, organism-based; further: test concentration or dose not given here
[10] = system: Oryza sativa; assay: Phytotoxicity against Oryza sativa cv. Koshihikari (rice) at 500 g a.i/ha measured after 14 days; type: organism-based; settings: in vivo, 336 h
[11] = system: Schoenoplectiella juncoides; assay: Pre-emergence herbicidal activity against Schoenoplectiella juncoides at 500 g a.i/ha measured after 14 days; type: functional, organism-based
[12] = system: Eleocharis acicularis; assay: Pre-emergence herbicidal activity against Eleocharis acicularis assessed as bleaching of stem/leaf parts; type: functional, organism-based
[13] = system: Rotala indica; assay: Pre-emergence herbicidal activity against Rotala indica assessed as bleaching of stem/leaf parts; type: functional, organism-based
[14] = system: Pontederia vaginalis; assay: Post-emergence herbicidal activity against Monochoria vaginalis assessed as bleaching of stem/leaf parts; type: functional, organism-based; further: test concentration or dose not given here
[15] = system: Rotala indica; assay: Pre-emergence herbicidal activity against Rotala indica at 500 g a.i/ha measured after 14 days; type: functional, organism-based
[16] = system: Elatine triandra; assay: Pre-emergence herbicidal activity against Elatine triandra at 500 g a.i/ha measured after 14 days; type: functional, organism-based
[17] = system: Echinochloa oryzicola; assay: Pre-emergence herbicidal activity against Echinochloa oryzicola at 500 g a.i/ha measured after 14 days; type: functional, organism-based
[18] = system: Lindernia procumbens; assay: Pre-emergence herbicidal activity against Lindernia procumbens at 500 g a.i/ha measured after 14 days; type: functional, organism-based
[19] = system: Ammannia multiflora; assay: Pre-emergence herbicidal activity against Ammannia multiflora assessed as bleaching of stem/leaf parts; type: functional, organism-based
[20] = system: Echinochloa oryzicola; assay: Pre-emergence herbicidal activity against Echinochloa oryzicola assessed as bleaching of stem/leaf parts; type: functional, organism-based
[21] = system: Schoenoplectiella juncoides; assay: Pre-emergence herbicidal activity against Schoenoplectiella juncoides assessed as bleaching of stem/leaf parts; type: functional, organism-based
[22] = system: Cyperus difformis; assay: Pre-emergence herbicidal activity against Cyperus difformis assessed as bleaching of stem/leaf parts; type: functional, organism-based
[23] = system: Pontederia vaginalis; assay: Pre-emergence herbicidal activity against Monochoria vaginalis at 500 g a.i/ha measured after 14 days; type: functional, organism-based
[24] = system: Eleocharis acicularis; assay: Pre-emergence herbicidal activity against Eleocharis acicularis at 500 g a.i/ha measured after 14 days; type: functional, organism-based
[25] = system: Ammannia multiflora; assay: Pre-emergence herbicidal activity against Ammannia multiflora at 500 g a.i/ha measured after 14 days; type: functional, organism-based
[26] = system: Echinochloa oryzicola; assay: Post-emergence herbicidal activity against Echinochloa oryzicola assessed as bleaching of stem/leaf parts; type: functional, organism-based; further: test concentration or dose not given here
[27] = system: Cyperus difformis; assay: Post-emergence herbicidal activity against Cyperus difformis assessed as bleaching of stem/leaf parts; type: functional, organism-based; further: test concentration or dose not given here
[28] = system: Pontederia vaginalis; assay: Pre-emergence herbicidal activity against Monochoria vaginalis assessed as bleaching of stem/leaf parts; type: functional, organism-based

Structure (SMILES)	Activity [1]	Activity [2]	Activity [3]	Activity [4]	Activity [5]	Activity [6]	Activity [7]	Activity [8]	Activity [9]	Activity [10]	Activity [11]	Activity [12]	Activity [13]	Activity [14]	Activity [15]	Activity [16]	Activity [17]	Activity [18]	Activity [19]	Activity [20]	also measured
CNC(=O)c1cn(C)nc1OCc1cccc(C(F)(F)F)c1	Active	Active	Active	Active	Active	Active	Active	inactive	Active	Non-toxic	inactive	Active	Active	Active	inactive	inactive	inactive	inactive	Active	Active	Activity [21]: Active; Activity [22]: Active; Activity [23]: inactive; Activity [24]: inactive; Activity [25]: inactive; Activity [26]: Active; Activity [27]: Active; Activity [28]: Active
Cn1nc(OCc2cccc(C(F)(F)F)c2)c(C(=O)NOc2ccc(F)cc2F)c1Cl	Active	Active	Active	Active	Active	Active	Active	inactive	Active	Non-toxic	inactive	Active	Active	Active	inactive	inactive	inactive	inactive	Active	Active	Activity [21]: Active; Activity [22]: Active; Activity [23]: inactive; Activity [24]: inactive; Activity [25]: inactive; Activity [26]: Active; Activity [27]: Active; Activity [28]: Active
C=CCNC(=O)c1cn(C)nc1OCc1cccc(C(F)(F)F)c1	Active	Active	Active	Active	Active	Active	Active	inactive	Active	Non-toxic	inactive	Active	Active	Active	inactive	inactive	inactive	inactive	Active	Active	Activity [21]: Active; Activity [22]: Active; Activity [23]: inactive; Activity [24]: inactive; Activity [25]: inactive; Activity [26]: Active; Activity [27]: Active; Activity [28]: Active
Cn1cc(C(=O)NCc2cccc(Cl)c2)c(OCc2cccc(C(F)(F)F)c2)n1	Active	Active	Active	Active	Active	Active	Active	inactive	Active	Non-toxic	inactive	Active	Active	Active	inactive	inactive	inactive	inactive	Active	Active	Activity [21]: Active; Activity [22]: Active; Activity [23]: inactive; Activity [24]: inactive; Activity [25]: inactive; Activity [26]: Active; Activity [27]: Active; Activity [28]: Active

— ChEMBL document CHEMBL3046635, “Synthesis and Herbicidal Activity of New Pyrazole-4-carboxamide Derivatives” (J Pestic Sci, 2004)
